# Paper PMC11167047 (Cell Death Discovery, 2024)
# Key:
# Assay in all cases: kinome screen (33PanQinase)
# Type in all cases: biochemical
# [1] = biological target: T1, TRKC (Homo sapiens, UniProt Q16288)
# T1 construct: purchased Reaction Biology Europe GmbH (formerly ProQinase)
# Experimental: (§1) The Kinome Screening was performed by Reaction Biology Europe GmbH (http://reactionbiology.com; Freiburg i. Br., Germany).
# [2] = biological target: T2, MAP3K9 (Homo sapiens, UniProt P80192)
# T2 construct: purchased Reaction Biology Europe GmbH (formerly ProQinase)
# Experimental: as §1
# [3] = biological target: T3, LTK (Homo sapiens, UniProt P29376)
# T3 construct: purchased Reaction Biology Europe GmbH (formerly ProQinase)
# Experimental: as §1
# [4] = biological target: T4, CDK1/CycA2 (Homo sapiens, UniProt P06493)
# T4 construct: purchased Reaction Biology Europe GmbH (formerly ProQinase)
# Experimental: as §1
# [5] = biological target: T5, PDGFRβ (Homo sapiens, UniProt P09619)
# T5 construct: purchased Reaction Biology Europe GmbH (formerly ProQinase)
# Experimental: as §1
# [6] = biological target: T6, AuroraA (Homo sapiens, UniProt O14965)
# T6 construct: purchased Reaction Biology Europe GmbH (formerly ProQinase)
# T6 sequence (O14965 1-403): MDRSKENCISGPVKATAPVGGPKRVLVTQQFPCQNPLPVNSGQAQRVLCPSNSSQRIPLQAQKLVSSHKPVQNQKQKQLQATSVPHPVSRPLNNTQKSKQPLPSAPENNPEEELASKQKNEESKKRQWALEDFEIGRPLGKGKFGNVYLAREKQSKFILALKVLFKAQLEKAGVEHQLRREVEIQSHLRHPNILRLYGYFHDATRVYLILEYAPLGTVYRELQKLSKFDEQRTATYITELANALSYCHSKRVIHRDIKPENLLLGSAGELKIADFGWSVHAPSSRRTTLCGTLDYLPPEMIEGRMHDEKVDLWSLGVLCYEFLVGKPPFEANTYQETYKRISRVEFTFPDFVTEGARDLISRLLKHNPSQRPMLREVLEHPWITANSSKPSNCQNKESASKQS
# Experimental: as §1
# [7] = biological target: T7, TNK1 (Homo sapiens, UniProt Q13470)
# T7 construct: purchased Reaction Biology Europe GmbH (formerly ProQinase)
# T7 sequence (Q13470 1-666): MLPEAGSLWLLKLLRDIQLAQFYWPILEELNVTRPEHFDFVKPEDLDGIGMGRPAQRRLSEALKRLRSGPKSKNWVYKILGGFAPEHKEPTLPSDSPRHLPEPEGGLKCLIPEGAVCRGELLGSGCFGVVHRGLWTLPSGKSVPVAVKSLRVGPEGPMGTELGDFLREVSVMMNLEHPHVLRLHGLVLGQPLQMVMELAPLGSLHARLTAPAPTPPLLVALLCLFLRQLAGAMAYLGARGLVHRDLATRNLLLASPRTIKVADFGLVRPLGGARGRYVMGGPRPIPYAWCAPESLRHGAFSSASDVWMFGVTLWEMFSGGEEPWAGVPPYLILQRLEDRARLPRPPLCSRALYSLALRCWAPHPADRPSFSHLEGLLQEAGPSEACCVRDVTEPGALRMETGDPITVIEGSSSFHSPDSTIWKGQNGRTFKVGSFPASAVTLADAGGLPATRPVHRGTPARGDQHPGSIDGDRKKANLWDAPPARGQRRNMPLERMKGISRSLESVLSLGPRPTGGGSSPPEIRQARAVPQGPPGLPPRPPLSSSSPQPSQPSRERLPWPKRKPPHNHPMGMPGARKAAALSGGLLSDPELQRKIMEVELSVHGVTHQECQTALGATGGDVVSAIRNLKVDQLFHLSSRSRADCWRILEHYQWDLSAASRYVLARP
# Experimental: as §1
# [8] = biological target: T8, CDK17/p35NCK (Homo sapiens, UniProt Q00537)
# T8 construct: purchased Reaction Biology Europe GmbH (formerly ProQinase)
# T8 sequence (Q00537 whole entry): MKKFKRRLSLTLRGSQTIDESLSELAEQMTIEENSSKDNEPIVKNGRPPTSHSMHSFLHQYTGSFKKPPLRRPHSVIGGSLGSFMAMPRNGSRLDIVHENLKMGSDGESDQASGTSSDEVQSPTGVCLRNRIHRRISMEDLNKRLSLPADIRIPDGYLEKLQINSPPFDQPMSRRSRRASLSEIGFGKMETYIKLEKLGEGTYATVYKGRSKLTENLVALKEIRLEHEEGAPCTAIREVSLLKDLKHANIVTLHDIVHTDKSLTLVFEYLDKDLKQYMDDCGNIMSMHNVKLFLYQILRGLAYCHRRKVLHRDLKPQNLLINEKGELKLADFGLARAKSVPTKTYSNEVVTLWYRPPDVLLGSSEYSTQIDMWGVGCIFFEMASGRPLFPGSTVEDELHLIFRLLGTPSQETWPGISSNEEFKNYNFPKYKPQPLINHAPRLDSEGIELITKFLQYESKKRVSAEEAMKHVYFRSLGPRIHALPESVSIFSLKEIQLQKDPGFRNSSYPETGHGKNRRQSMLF
# T8 sequence (Q15078 whole entry partner): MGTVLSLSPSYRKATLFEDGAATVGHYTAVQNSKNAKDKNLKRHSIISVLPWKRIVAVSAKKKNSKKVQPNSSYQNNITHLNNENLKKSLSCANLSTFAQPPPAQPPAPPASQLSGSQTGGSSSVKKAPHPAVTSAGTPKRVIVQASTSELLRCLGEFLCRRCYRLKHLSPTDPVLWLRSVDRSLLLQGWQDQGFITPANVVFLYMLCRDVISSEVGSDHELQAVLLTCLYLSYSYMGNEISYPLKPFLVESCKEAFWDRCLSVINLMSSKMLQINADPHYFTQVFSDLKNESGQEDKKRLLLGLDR
# Experimental: as §1
# [9] = biological target: T9, ACVR2B (Homo sapiens, UniProt Q13705)
# T9 construct: purchased Reaction Biology Europe GmbH (formerly ProQinase)
# T9 sequence (Q13705 19-512): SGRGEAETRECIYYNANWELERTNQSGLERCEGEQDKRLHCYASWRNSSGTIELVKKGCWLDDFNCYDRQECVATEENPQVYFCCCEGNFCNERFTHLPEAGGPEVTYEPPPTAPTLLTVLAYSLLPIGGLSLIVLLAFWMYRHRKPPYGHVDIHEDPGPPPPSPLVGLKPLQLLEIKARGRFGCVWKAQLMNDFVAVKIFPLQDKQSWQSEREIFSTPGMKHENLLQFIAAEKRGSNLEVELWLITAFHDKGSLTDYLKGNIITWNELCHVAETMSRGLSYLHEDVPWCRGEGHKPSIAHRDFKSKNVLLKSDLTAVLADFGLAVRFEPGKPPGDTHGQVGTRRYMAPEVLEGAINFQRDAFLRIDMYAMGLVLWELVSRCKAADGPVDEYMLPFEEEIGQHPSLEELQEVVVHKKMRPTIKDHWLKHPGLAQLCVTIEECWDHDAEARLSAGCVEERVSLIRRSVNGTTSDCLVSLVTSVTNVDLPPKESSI
# Experimental: as §1
# [10] = biological target: T10, BMPR1A (Homo sapiens, UniProt P36894)
# T10 construct: purchased Reaction Biology Europe GmbH (formerly ProQinase)
# T10 sequence (P36894 24-532): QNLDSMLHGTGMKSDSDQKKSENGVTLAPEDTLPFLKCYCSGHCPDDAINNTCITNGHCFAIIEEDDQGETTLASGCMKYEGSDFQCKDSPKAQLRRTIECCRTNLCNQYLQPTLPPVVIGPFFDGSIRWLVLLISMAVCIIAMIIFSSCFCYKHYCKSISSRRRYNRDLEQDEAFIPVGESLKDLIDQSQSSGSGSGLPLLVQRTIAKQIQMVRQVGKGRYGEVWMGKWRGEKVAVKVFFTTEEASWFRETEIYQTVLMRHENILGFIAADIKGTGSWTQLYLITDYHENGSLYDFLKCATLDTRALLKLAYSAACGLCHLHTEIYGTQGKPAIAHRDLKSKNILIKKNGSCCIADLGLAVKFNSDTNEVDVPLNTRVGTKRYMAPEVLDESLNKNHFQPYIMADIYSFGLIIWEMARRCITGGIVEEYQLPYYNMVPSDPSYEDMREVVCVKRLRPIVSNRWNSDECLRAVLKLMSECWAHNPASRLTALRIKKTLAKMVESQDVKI
# Experimental: as §1
# [11] = biological target: T11, AuroraC (Homo sapiens, UniProt Q9UQB9)
# T11 construct: purchased Reaction Biology Europe GmbH (formerly ProQinase)
# T11 sequence (Q9UQB9 1-309): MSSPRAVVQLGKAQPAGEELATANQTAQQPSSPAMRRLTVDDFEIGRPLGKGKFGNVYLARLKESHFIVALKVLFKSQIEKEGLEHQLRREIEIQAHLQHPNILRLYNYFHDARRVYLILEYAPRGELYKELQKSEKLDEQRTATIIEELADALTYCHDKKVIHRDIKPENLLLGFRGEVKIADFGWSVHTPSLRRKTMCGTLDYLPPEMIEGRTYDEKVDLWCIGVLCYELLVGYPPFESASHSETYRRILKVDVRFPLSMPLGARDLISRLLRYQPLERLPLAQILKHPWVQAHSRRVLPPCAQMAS
# Experimental: as §1
# [12] = biological target: T12, SRC (Homo sapiens, UniProt P12931)
# T12 construct: purchased Reaction Biology Europe GmbH (formerly ProQinase)
# T12 sequence (P12931 whole entry): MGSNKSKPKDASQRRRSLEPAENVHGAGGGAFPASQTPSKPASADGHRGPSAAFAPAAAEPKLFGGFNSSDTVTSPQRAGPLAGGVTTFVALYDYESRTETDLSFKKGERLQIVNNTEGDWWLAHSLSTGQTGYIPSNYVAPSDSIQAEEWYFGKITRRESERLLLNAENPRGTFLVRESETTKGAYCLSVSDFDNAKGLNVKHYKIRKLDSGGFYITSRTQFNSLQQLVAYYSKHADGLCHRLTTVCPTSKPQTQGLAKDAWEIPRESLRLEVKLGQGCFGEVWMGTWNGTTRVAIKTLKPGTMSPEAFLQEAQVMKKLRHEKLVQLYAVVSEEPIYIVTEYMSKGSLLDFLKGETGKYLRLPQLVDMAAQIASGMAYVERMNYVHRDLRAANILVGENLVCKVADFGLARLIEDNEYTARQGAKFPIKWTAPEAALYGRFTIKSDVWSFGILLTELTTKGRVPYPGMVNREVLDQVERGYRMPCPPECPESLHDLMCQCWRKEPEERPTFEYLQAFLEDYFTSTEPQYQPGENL
# Experimental: as §1
# [13] = biological target: T13, ERBB4 (Homo sapiens, UniProt Q15303)
# T13 construct: purchased Reaction Biology Europe GmbH (formerly ProQinase)
# T13 sequence (Q15303 26-1308): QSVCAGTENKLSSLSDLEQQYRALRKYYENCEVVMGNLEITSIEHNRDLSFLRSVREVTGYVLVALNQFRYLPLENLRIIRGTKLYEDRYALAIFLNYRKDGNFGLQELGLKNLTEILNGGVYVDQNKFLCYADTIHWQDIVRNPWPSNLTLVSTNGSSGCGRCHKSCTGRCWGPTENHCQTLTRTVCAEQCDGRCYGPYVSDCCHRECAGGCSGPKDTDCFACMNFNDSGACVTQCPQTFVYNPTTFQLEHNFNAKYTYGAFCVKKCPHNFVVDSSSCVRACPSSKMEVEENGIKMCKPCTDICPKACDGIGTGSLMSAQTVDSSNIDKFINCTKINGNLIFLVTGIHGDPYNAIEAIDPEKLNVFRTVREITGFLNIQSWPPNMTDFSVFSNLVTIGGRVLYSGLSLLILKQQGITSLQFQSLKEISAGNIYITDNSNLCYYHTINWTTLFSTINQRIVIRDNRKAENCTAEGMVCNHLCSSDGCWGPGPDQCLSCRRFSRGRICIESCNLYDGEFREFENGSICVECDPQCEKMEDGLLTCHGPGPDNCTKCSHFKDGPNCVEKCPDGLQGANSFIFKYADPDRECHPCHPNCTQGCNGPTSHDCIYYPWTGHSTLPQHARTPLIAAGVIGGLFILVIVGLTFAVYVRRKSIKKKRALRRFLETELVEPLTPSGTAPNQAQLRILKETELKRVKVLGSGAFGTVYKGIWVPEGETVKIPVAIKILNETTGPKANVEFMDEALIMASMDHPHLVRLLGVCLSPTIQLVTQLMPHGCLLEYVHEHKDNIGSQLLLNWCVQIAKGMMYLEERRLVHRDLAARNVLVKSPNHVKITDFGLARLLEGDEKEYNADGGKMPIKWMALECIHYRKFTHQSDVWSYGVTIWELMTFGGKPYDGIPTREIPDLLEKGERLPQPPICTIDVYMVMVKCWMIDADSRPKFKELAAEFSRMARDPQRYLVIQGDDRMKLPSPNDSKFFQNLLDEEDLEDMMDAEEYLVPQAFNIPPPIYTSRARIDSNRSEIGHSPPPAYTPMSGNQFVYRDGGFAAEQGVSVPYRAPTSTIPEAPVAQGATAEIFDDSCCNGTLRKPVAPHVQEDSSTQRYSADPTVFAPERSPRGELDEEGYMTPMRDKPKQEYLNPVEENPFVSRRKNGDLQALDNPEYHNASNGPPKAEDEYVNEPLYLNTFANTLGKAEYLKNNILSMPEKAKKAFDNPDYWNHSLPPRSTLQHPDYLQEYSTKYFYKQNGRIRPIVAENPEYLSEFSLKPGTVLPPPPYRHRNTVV
# Experimental: as §1
# [14] = biological target: T14, TYK2 (Homo sapiens, UniProt P29597)
# T14 construct: purchased Reaction Biology Europe GmbH (formerly ProQinase)
# Experimental: as §1
# [15] = biological target: T15, CLK3 (Homo sapiens, UniProt P49761)
# T15 construct: purchased Reaction Biology Europe GmbH (formerly ProQinase)
# T15 sequence (P49761 whole entry): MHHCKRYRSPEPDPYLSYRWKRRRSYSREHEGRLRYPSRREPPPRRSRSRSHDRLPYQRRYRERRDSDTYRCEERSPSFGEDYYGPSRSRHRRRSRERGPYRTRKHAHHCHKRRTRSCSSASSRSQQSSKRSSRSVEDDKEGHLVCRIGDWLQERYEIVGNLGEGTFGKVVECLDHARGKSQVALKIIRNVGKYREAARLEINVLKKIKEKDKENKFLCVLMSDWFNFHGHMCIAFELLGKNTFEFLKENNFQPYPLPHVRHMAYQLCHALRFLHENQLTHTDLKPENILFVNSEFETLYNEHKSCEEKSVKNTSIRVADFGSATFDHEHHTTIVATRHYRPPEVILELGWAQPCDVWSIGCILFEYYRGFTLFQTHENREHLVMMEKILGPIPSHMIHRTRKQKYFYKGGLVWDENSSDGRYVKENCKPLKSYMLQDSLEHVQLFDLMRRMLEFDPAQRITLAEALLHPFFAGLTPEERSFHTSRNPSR
# Experimental: as §1
# [16] = biological target: T16, TLK2 (Homo sapiens, UniProt Q86UE8)
# T16 construct: purchased Reaction Biology Europe GmbH (formerly ProQinase)
# Experimental: as §1
# T1 sequence (Q16288 32-839): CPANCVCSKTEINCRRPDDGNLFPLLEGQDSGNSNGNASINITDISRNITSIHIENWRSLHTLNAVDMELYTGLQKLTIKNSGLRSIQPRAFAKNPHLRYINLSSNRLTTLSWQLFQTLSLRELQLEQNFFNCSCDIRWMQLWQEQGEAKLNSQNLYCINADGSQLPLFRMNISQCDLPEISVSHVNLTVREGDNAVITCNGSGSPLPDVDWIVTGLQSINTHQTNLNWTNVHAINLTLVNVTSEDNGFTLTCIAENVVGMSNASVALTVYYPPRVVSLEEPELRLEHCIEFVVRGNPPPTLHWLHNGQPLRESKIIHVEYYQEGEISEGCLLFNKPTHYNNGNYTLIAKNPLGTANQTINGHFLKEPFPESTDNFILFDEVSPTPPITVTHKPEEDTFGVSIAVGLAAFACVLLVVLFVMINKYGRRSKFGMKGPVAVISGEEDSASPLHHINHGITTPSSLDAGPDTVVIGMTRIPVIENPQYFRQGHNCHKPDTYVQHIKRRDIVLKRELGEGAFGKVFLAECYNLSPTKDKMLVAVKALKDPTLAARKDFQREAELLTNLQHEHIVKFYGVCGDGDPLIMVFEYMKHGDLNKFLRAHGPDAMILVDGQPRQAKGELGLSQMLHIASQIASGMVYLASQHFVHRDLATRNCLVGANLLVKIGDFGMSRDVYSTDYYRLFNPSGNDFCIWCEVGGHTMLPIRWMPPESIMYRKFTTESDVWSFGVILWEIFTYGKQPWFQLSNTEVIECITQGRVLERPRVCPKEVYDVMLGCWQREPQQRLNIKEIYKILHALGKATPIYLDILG
Structure (SMILES),residual kinase activity ([1]; 0.3 µM),residual kinase activity ([2]; 0.3 µM),residual kinase activity ([3]; 0.3 µM),residual kinase activity ([4]; 0.3 µM),residual kinase activity ([5]; 0.3 µM),residual kinase activity ([6]; 0.3 µM),residual kinase activity ([7]; 0.3 µM),residual kinase activity ([8]; 0.3 µM),residual kinase activity ([9]; 0.3 µM),residual kinase activity ([10]; 0.3 µM),residual kinase activity ([11]; 0.3 µM),residual kinase activity ([12]; 0.3 µM),residual kinase activity ([13]; 0.3 µM),residual kinase activity ([14]; 0.3 µM),residual kinase activity ([15]; 0.3 µM),residual kinase activity ([16]; 0.3 µM),other results
c1ccc(CNc2cc(-c3c[nH]c4ncccc34)ccn2)cc1 [meriolin 36],18 % of control,57 % of control,46 % of control,2 % of control,24 % of control,81 % of control,29 % of control,20 % of control,22 % of control,105 % of control,76 % of control,88 % of control,101 % of control,6 % of control,13 % of control,149 % of control,residual kinase activity ([1]; 3 µM): 2 % of control; residual kinase activity ([2]; 3 µM): 12 % of control; residual kinase activity ([3]; 3 µM): 11 % of control; residual kinase activity ([4]; 3 µM): 1 % of control; residual kinase activity ([5]; 3 µM): 4 % of control; residual kinase activity ([6]; 3 µM): 35 % of control; residual kinase activity ([7]; 3 µM): 9 % of control; residual kinase activity ([8]; 3 µM): 10 % of control; residual kinase activity ([9]; 3 µM): 5 % of control; residual kinase activity ([10]; 3 µM): 61 % of control; residual kinase activity ([11]; 3 µM): 41 % of control; residual kinase activity ([12]; 3 µM): 24 % of control; residual kinase activity ([13]; 3 µM): 56 % of control; residual kinase activity ([14]; 3 µM): 1 % of control; residual kinase activity ([15]; 3 µM): 1 % of control; residual kinase activity ([16]; 3 µM): 88 % of control
COc1ccnc2[nH]cc(-c3cc(N)nc(N)c3)c12 [meriolin 16],36 % of control,80 % of control,98 % of control,5 % of control,75 % of control,107 % of control,39 % of control,24 % of control,74 % of control,94 % of control,95 % of control,86 % of control,90 % of control,68 % of control,36 % of control,91 % of control,residual kinase activity ([1]; 0.03 µM): 72 % of control; residual kinase activity ([2]; 0.03 µM): 95 % of control; residual kinase activity ([3]; 0.03 µM): 110 % of control; residual kinase activity ([4]; 0.03 µM): 32 % of control; residual kinase activity ([5]; 0.03 µM): 93 % of control; residual kinase activity ([6]; 0.03 µM): 109 % of control; residual kinase activity ([7]; 0.03 µM): 82 % of control; residual kinase activity ([8]; 0.03 µM): 46 % of control; residual kinase activity ([9]; 0.03 µM): 81 % of control; residual kinase activity ([10]; 0.03 µM): 94 % of control; residual kinase activity ([11]; 0.03 µM): 104 % of control; residual kinase activity ([12]; 0.03 µM): 95 % of control; residual kinase activity ([13]; 0.03 µM): 108 % of control; residual kinase activity ([14]; 0.03 µM): 105 % of control; residual kinase activity ([15]; 0.03 µM): 94 % of control; residual kinase activity ([16]; 0.03 µM): 111 % of control
